Experimental data published in patent US6323315A, “Dolastatin peptides” (priority 2000, dated 2001).

Key:
[1] = test system: human lymphoma cell lines; settings: cited from earlier work
tubulin = settings: cited from earlier work
[2] = test system: P388 lymphocytic leukemia (PS system) cell line; settings: cited from earlier work
[3] = test system: P-388 Lymphocytic Leukemia; assay: Murine P-388 lymphocytic leukemia cell line inhibition; assay type: cell-based; settings: P-388 mouse leukemia
[4] = test system: NCI-H460 (non-small lung carcinoma); assay: in vitro cytotoxicity, cultured cancer cell panel: NCI-H460; assay type: cell-based, Human; settings: for GI-50: NCI-H460, lung-NSC, 48 hours; for LC-50 / TGI: NCI-H460; for LC-50: -50% growth; for TGI: total growth inhibition (0% growth)
Description: (§1) Compounds prepared according to Examples 1-14 above were evaluated for in vitro cytotoxicity against a panel of cultured cancer cells, including the cell lines OVCAR-3 (ovarian cancer), SF-295 (central nervous system), A498 (renal cancer), NCI-H460 (non-small lung carcinoma), KM20L2 (colon cancer) and SK-MEL-5 (melanoma). For each cell line, each compound was tested at 5 concentrations, 100 μg/mL, 10 μg/mL, 1 μg/mL, 0.1 μg/mL and 0.01 μg/mL. Percent growth values were calculated for each concentration, and the two or three concentrations with growth values above, below or near 50% growth (relative to control) were used to calculate the ED50 value using a linear regression calculation. In cases in which 50% growth inhibition was not observed for any of the concentrations, the ED50 value was expressed as ED50 >100 μg/mL. If the growth inhibition was greater than 50% for each concentration, the ED50 was expressed as <0.01 μg/mL. Similar calculations were performed for total growth inhibition (TGI; 0% growth) and LC50 (-50% growth).
(§2) At the start of each experiment, cells from the in vitro cell culture were inoculated into tubes or microtiter plates. One set of control tubes/plates was immediately counted to determine the cell count at the beginning of the experiment. This is the "baseline count" or T0 reading. After 48 hours, a second set of control tubes/plates is analyzed to determine the control growth value. The growth or death of cells relative to the T0 value is used to define the percent growth.

KM20L2 (colon cancer) = assay: in vitro cytotoxicity, cultured cancer cell panel: KM20L2; assay type: cell-based, Human; settings: for GI-50: KM20L2, colon, 48 hours; for LC-50 / TGI: KM20L2; for LC-50: -50% growth; for TGI: total growth inhibition (0% growth)
Description: as §1, §2

SK-MEL-5 (melanoma) = assay: in vitro cytotoxicity, cultured cancer cell panel: SK-MEL-5; assay type: cell-based, Human; settings: for GI-50: SK-MEL-5, melanoma, 48 hours; for LC-50 / TGI: SK-MEL-5; for LC-50: -50% growth; for TGI: total growth inhibition (0% growth)
Description: as §1, §2

A498 (renal cancer) = assay: in vitro cytotoxicity, cultured cancer cell panel: A498; assay type: cell-based, Human; settings: for GI-50: A498, renal, 48 hours; for LC-50 / TGI: A498; for LC-50: -50% growth; for TGI: total growth inhibition (0% growth)
Description: as §1, §2

[5] = test system: SF-295 (central nervous system); assay: in vitro cytotoxicity, cultured cancer cell panel: SF-295; assay type: cell-based, Human; settings: for GI-50: SF-295, CNS, 48 hours; for LC-50 / TGI: SF-295; for LC-50: -50% growth; for TGI: total growth inhibition (0% growth)
Description: as §1, §2

OVCAR-3 (ovarian cancer) = assay: in vitro cytotoxicity, cultured cancer cell panel: OVCAR-3; assay type: cell-based, Human; settings: for GI-50: OVCAR-3, ovarian, 48 hours; for TGI / LC-50: OVCAR-3; for TGI: total growth inhibition (0% growth); for LC-50: -50% growth
Description: as §1, §2

Substance | growth of four different human lymphoma cell lines [1] | tubulin polymerization (tubulin) | ED50 [3] | GI-50 [4] | LC-50 [4] | TGI [4] | GI-50 (KM20L2 (colon cancer)) | LC-50 (KM20L2 (colon cancer)) | TGI (KM20L2 (colon cancer)) | GI-50 (SK-MEL-5 (melanoma)) | LC-50 (SK-MEL-5 (melanoma)) | TGI (SK-MEL-5 (melanoma)) | GI-50 (A498 (renal cancer)) | LC-50 (A498 (renal cancer)) | TGI (A498 (renal cancer)) | GI-50 [5] | GI-50 (OVCAR-3 (ovarian cancer)) | TGI (OVCAR-3 (ovarian cancer)) | LC-50 [5] | TGI [5] | other results
Dolastatin 10 | effectively inhibit | effectively inhibit | – | – | – | – | – | – | – | – | – | – | – | – | – | – | – | – | – | – | –
Dolastatin 15 | effectively inhibit | effectively inhibit | – | – | – | – | – | – | – | – | – | – | – | – | – | – | – | – | – | – | growth of P388 lymphocytic leukemia (PS system) cell line [2]: inhibits the growth
Dov-Val-Dil-Dap 1-bicyclo[3.3.0]octane amide [Compound 13b] | – | – | 2.2 ng/mL | 0.00047 µg/mL | > 0.01 µg/mL | > 10 ng/mL | 0.00036 µg/mL | > 0.01 µg/mL | > 10 ng/mL | 0.0007 µg/mL | > 0.01 µg/mL | > 10 ng/mL | 0.002 µg/mL | > 0.01 µg/mL | > 10 ng/mL | – | – | – | – | – | –
Dov-Val-Dil-Dap 2-[p-aminophenyl]ethylamide [Compound 29d] | – | – | 0.338 ng/mL | 0.00013 µg/mL | – | 0.87 ng/mL | 4.9e-05 µg/mL | – | > 10 ng/mL | 0.00023 µg/mL | – | – | > 0.01 µg/mL | – | – | 0.00053 µg/mL | 5e-05 µg/mL | 0.79 ng/mL | – | – | –
Dov-Val-Dil-Dap-Met 1-(bicyclo[3.3.0]octane) Amide [Compound 12d] | – | – | – | 0.00029 µg/mL | > 0.01 µg/mL | 4 ng/mL | 0.0003 µg/mL | > 0.01 µg/mL | 0.9 ng/mL | 0.00044 µg/mL | > 0.01 µg/mL | > 10 ng/mL | 0.00048 µg/mL | > 0.01 µg/mL | > 10 ng/mL | 0.00047 µg/mL | 0.00031 µg/mL | > 10 ng/mL | > 0.01 µg/mL | > 10 ng/mL | LC-50 (OVCAR-3 (ovarian cancer)): > 0.01 µg/mL
Dov-Val-Dil-Dap-Phe Amide [Compound 28d] | – | – | 0.00255 ng/mL | 4.1e-07 µg/mL | > 0.0001 µg/mL | > 0.1 ng/mL | 2e-07 µg/mL | > 0.0001 µg/mL | 0.0041 ng/mL | 5.6e-07 µg/mL | > 0.0001 µg/mL | > 0.1 ng/mL | 3.4e-06 µg/mL | > 0.0001 µg/mL | > 0.1 ng/mL | 6.1e-07 µg/mL | 3e-07 µg/mL | 0.011 ng/mL | > 0.0001 µg/mL | > 0.1 ng/mL | LC-50 (OVCAR-3 (ovarian cancer)): > 0.0001 µg/mL
